In paper PMC3324139 (2012):

Columns and labels:
[1] = system: 76 mer-DNA aptamer (DNA, aptamer) CGTACGGAATTCGCTAGCCCCCCGGCAGGCCACGGCTTGGGTTGGTCCCACTGCGCGTGGATCCGAGCTCCACGTG; test: competitive enzyme-linked aptamer assay (ELAA); details: sodium phosphate 10 mM, no added NaCl, no Mg2+; pH 7.2, RT; TC-HRP displaced; relative to TC = 100% at 50% B/B0; apparent
[2] = system: 57 mer-RNA aptamer (RNA, aptamer) GAGCCUAAAACAUACCAGAGAAAUCUGGAGAGGUGAAGAAUACGACCACCUAGGCUC; test: competitive enzyme-linked aptamer assay (ELAA); details: sodium phosphate 10 mM, no added NaCl, no Mg2+; pH 7.2, RT; TC-HRP displaced; relative to TC = 100% at 50% B/B0; apparent

## CN(C)[C@@H]1C(=O)C(C(N)=O)=C(O)[C@@]2(O)C(=O)C3=C(O)c4c(O)cccc4[C@@](C)(O)[C@H]3[C@H](O)[C@@H]12
[1]
  Cross-reactivity: 129.7%
[2]
  Cross-reactivity: 35.3%
